Structures are written as SMILES.

The target of data set [1] is Acetylcholinesterase (Electrophorus electricus, UniProt O42275). The data set is described as follows: Inhibition of electric eel AChE using ATCI and BTCI as substrate preincubated for 5 mins followed by substrate addition and measured after 3 mins by DTNB-reagent based Ellman's method. (In general: DTNB colorimetry detects thiols as they appear.)
For data set [2], the target named is Cholinesterase (Equus caballus, UniProt P81908). Briefly: Inhibition of equine serum BuChE using ATCI and BTCI as substrate preincubated for 5 mins followed by substrate addition and measured after 3 mins by DTNB-reagent based Ellman's method. Type of data set: cell-free.
A short description of data set [3]: Antioxidant activity assessed as trolox equivalent of ORAC radical scavenging activity by ORAC assay. Type of data set: functional.
Data set [4] concerns the target T1, Acetylcholinesterase (Homo sapiens, UniProt P22303). The data set is described as follows: Inhibition of human erythrocyte AChE using ATCI and BTCI as substrate preincubated for 5 mins followed by substrate addition and measured after 3 mins by DTNB-reagent based Ellman's method.
Data set [5] concerns the target Cholinesterase (Homo sapiens, UniProt P06276). Briefly: Inhibition of human serum BuChE using ATCI and BTCI as substrate preincubated for 5 mins followed by substrate addition and measured after 3 mins by DTNB-reagent based Ellman's method. Type of data set: cell-free.
Data set [6] is described as follows: Selectivity index, ratio of IC50 for inhibition of human erythrocyte AChE to IC50 for inhibition of human serum BuChE.
A short description of a further data set: in vitro. To be noted: PAMPA.
The target in data set [7] is T1, Acetylcholinesterase. The data set is described as follows: Inhibition of human erythrocyte AChE at 100 uM using ATCI and BTCI as substrate preincubated for 5 mins followed by substrate addition and measured after 3 mins by DTNB-reagent based Ellman's method relative to control. The note with it: time 8.0 min.
Data set [8] addresses Acetylcholinesterase (Electrophorus electricus) (UniProt O42275). The data set is described as follows: Inhibition of electric eel AChE at 100 uM using ATCI and BTCI as substrate preincubated for 5 mins followed by substrate addition and measured after 3 mins by DTNB-reagent based Ellman's method relative to control. The note with it: time 8.0 min.
Data set [9] in a line: Selectivity index, ratio of IC50 for inhibition of equine serum BuChE to inhibition of electric eel AChE.
Data set [10] is described as follows: Selectivity index, ratio of IC50 for inhibition of human erythrocyte AChE to inhibition of human serum BuChE.

T1 sequence (P22303 whole entry): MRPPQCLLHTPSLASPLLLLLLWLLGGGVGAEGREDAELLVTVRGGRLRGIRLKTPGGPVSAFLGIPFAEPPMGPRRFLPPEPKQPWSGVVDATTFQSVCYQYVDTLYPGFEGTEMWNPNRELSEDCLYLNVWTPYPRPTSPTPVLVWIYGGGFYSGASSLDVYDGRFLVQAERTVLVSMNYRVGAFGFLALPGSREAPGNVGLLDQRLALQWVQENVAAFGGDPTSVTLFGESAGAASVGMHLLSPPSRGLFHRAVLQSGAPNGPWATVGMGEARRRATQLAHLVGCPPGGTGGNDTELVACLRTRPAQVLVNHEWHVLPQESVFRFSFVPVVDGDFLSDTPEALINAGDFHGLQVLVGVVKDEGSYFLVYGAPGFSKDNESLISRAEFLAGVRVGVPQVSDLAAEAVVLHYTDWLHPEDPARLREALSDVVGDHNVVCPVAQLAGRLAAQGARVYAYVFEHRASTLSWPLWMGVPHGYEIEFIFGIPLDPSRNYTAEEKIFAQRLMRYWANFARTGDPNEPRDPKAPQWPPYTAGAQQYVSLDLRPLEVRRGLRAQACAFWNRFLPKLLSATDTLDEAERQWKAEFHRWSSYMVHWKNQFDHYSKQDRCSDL
Acetylcholinesterase (Electrophorus electricus, UniProt O42275), sequence (O42275 whole entry): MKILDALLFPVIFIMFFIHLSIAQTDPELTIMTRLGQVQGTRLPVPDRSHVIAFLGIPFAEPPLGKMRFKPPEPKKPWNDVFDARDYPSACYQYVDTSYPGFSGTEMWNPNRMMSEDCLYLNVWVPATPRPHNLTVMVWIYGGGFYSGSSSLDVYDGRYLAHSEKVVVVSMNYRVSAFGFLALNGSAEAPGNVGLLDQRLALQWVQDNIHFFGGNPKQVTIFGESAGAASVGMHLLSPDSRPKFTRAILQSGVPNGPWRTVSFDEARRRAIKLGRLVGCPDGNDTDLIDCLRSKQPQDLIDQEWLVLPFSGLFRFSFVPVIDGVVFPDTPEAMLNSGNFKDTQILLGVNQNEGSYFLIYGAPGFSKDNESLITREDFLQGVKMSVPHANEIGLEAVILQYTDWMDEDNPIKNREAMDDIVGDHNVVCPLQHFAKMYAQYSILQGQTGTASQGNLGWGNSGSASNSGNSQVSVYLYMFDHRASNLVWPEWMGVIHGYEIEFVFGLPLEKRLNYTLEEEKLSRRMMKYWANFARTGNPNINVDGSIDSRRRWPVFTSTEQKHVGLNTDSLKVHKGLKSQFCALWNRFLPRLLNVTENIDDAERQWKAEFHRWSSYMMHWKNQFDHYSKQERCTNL
Cholinesterase (Homo sapiens, UniProt P06276), sequence (P06276 whole entry): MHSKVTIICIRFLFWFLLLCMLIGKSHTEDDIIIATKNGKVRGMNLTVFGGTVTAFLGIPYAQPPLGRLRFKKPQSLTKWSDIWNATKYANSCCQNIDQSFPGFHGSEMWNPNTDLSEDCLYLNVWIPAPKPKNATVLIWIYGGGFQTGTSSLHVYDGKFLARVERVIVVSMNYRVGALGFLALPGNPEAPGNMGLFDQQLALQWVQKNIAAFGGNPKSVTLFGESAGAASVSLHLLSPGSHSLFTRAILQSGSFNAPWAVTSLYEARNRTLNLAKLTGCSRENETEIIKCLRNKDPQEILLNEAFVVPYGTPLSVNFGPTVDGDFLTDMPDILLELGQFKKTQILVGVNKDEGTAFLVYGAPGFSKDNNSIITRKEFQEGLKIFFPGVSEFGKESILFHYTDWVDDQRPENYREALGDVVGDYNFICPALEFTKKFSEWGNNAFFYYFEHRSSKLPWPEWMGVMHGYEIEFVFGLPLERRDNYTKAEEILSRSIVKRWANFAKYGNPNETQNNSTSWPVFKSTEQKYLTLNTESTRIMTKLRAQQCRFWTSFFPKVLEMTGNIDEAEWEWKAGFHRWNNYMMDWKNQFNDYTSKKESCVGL
Cholinesterase (Equus caballus, UniProt P81908), sequence (P81908 whole entry): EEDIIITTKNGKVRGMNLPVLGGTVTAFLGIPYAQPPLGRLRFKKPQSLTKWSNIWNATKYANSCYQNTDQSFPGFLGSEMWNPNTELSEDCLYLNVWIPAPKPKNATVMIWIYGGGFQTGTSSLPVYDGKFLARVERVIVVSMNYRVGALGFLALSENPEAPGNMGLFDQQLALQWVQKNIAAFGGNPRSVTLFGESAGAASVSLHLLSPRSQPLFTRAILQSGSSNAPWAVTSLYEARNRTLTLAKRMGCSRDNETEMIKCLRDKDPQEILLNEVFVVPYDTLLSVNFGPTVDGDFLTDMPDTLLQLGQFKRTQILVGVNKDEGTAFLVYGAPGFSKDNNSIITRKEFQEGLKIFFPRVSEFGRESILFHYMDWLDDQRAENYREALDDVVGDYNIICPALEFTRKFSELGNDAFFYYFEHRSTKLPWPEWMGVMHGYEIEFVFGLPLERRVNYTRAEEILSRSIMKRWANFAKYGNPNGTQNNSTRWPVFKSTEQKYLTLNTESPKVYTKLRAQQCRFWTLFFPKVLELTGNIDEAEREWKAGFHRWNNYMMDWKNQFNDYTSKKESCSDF
Acetylcholinesterase (Electrophorus electricus), sequence (O42275 24-633 limits assumed): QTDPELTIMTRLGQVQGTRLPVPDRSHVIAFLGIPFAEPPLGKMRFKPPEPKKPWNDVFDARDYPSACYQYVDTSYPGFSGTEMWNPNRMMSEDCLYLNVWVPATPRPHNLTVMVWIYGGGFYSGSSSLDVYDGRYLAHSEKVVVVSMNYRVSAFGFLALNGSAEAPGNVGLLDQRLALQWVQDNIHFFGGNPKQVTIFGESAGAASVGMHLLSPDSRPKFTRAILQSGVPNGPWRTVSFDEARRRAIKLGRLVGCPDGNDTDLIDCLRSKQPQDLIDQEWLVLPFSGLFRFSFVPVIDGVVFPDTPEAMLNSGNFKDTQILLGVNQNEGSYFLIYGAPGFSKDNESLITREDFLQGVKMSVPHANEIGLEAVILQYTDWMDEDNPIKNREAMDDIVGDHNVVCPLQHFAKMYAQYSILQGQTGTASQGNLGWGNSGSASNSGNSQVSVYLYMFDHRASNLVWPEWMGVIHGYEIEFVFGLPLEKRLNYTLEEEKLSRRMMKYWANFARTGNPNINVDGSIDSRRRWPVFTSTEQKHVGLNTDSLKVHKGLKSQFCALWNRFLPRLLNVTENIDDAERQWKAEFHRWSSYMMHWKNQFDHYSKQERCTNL
Description for in vitro: Permeability coefficient of the compound across blood brain barrier incubated for 18 hrs by PAMPA assay

Broadly, the IC50 is the concentration needed to halve the response being measured. Read a low IC50 as inhibition by little substance. Broadly, the Papp is the rate of passage across a membrane or cell layer, normalised by area and donor concentration. Read a high Papp as ready permeation. On to `COc1ccc2c(c1)c(C=O)cn2CCCCCCCCCCN(C)Cc1cccc(O)c1`, for which the IC50 against Acetylcholinesterase [1] came to 3.1 µM; against Cholinesterase [2], 0.61 µM; on Acetylcholinesterase [4], 4.52 µM; against Cholinesterase [5], 0.19 µM. Besides, the Activity in [3] was below 0.01 equiv. Besides, the Ratio IC50 in data set [6] is 23.8. In addition, in the data set “in vitro”, the Papp at 18 h turned out to be 5.76 ×10⁻⁶ cm/s.

In the case of `COc1ccc2c(c1)c(C=O)cn2CCCCCN(C)Cc1ccc(O)cc1`, the IC50 against Acetylcholinesterase [1] turned out to be 26.9 µM; on Cholinesterase [2], 6.19 µM. For the same molecule, the Activity in [3] worked out at 0.78 equiv.

The term inhibition denotes how much of the control response was suppressed. Read a high inhibition as a response far below the control. With `COc1ccc(CN(C)CCCCCCCCCCCCn2cc(C=O)c3cc(OC)ccc32)cc1`, the figures for the IC50 against Acetylcholinesterase [1], against Cholinesterase [2] and against Cholinesterase [5] were 79.9 µM, 5.49 µM and 0.43 µM, respectively. For the same molecule, in data set [3], the Activity was below 0.01 equiv. On Acetylcholinesterase [7], this molecule registered an inhibition of 46.1%. In addition, the Ratio IC50 in data set [6] turned out to be 233. The molecule also gave a Papp at 18 h in the data set “in vitro” of 4.09 ×10⁻⁶ cm/s.

For the molecule `O=c1c(O)c(-c2ccc(O)c(O)c2)oc2cc(O)cc(O)c12`, the Activity in data set [3] was determined as 6.14 equiv.

For `COc1ccc2c(c1)c(C=O)cn2CCCCCCCCCCCCN(C)Cc1cccc(O)c1`, the IC50 on Acetylcholinesterase [1] came out at 27.6 µM; at Cholinesterase [2], 0.31 µM; at Acetylcholinesterase [4] it was 76.5 µM; against Cholinesterase [5], 0.15 µM. For the same molecule, in [3], the Activity is below 0.01 equiv. Further, the Ratio IC50 in [6] is 510. In “in vitro”, this molecule gave an apparent permeability (Papp) at 18 h of 4.71 ×10⁻⁶ cm/s.

In the case of `COc1ccc2c(c1)c(C=O)cn2CCCCCCN(C)Cc1ccc(O)cc1`, the results for the IC50 at Acetylcholinesterase [1] and on Cholinesterase [2] were 0.54 µM and 7.2 µM, respectively. Besides, the Activity in data set [3] worked out at 0.61 equiv.

`C[C@]12CC[C@@H]3c4ccc(O)cc4CC[C@H]3[C@@H]1CC[C@@H]2O` [ESTRADIOL] came in with a Papp at 18 h in “in vitro” of 14.1 ×10⁻⁶ cm/s.

On to `COc1ccc2c(c1)c(C=O)cn2CCCCCCCN(C)Cc1cccc(O)c1`, for which the IC50 against Acetylcholinesterase [1] was 1.39 µM; against Cholinesterase [2], 5.47 µM; against Acetylcholinesterase [4] it was 5.54 µM; against Cholinesterase [5] it was 4.89 µM. Also, in data set [3], the Activity was below 0.01 equiv. Besides, the Ratio IC50 in [6] was 1.13. The Papp at 18 h in “in vitro” worked out at 4.78 ×10⁻⁶ cm/s.

In the case of `COc1ccc2c(c1)c(C=O)cn2CCCCN(C)Cc1cccc(O)c1`, the IC50 against Cholinesterase [2] is 42 µM. For the same molecule, the inhibition in data set [8] was 48.2%. In addition, the Selectivity Index in data set [9] is above 2. Further, the Activity in [3] was below 0.01 equiv.

In “in vitro”, `CN(C)CCCN1c2ccccc2Sc2ccc(Cl)cc21` [CHLORPROMAZINE] had a Papp at 18 h of 5.93 ×10⁻⁶ cm/s.

For the molecule `COc1ccc2c(c1)c(C=O)cn2CCCCCCCCN(C)Cc1ccc(O)cc1`, the IC50 at Acetylcholinesterase [1] amounted to 1.77 µM; at Cholinesterase [2], 0.45 µM; against Acetylcholinesterase [4] it was 2.06 µM; against Cholinesterase [5], 0.49 µM. The Activity in data set [3] came to 0.28 equiv. For the same molecule, the Ratio IC50 in data set [6] turned out to be 4.2. For the same molecule, the Papp at 18 h in “in vitro” was 4.62 ×10⁻⁶ cm/s.

Regarding `COc1ccc2c(c1)c(C=O)cn2CCCCCCN(C)Cc1cccc(O)c1`, the IC50 was determined as 0.81 µM on Acetylcholinesterase [1] and 16.2 µM against Cholinesterase [2]. Besides, the Activity in data set [3] came out at 0.82 equiv.

Turning to `COc1ccc2c(c1)c(C=O)cn2CCCCCCCCCN(C)Cc1cccc(O)c1`, the IC50 was determined as 3.36 µM at Acetylcholinesterase [1], 1.63 µM at Cholinesterase [2], 5.19 µM against Acetylcholinesterase [4] and 2.36 µM on Cholinesterase [5]. The Activity in data set [3] was below 0.01 equiv. For the same molecule, the Ratio IC50 in [6] amounted to 2.2.

`COc1cccc(CN(C)CCCCCCCCCCCCn2cc(C=O)c3cc(OC)ccc32)c1`: the IC50 came to 69.1 µM against Acetylcholinesterase [1], 0.43 µM against Cholinesterase [2] and 5.49 µM against Cholinesterase [5]. The Activity in data set [3] is below 0.01 equiv. This molecule returned an inhibition against Acetylcholinesterase [7] of 46.1%. In [10], the Selectivity Index is above 200. For the same molecule, the Papp at 18 h in “in vitro” was 1.82 ×10⁻⁶ cm/s.

`COc1ccc2c(c1)c(C=O)cn2CCCN(C)Cc1cccc(O)c1` yielded an IC50 on Cholinesterase [2] of 72.3 µM. The molecule also yielded an inhibition in data set [8] of 48.1%. Also, the Selectivity Index in data set [9] is above 1. Also, in [3], the Activity is 0.37 equiv.

For `COc1ccc2c(c1)c(C=O)cn2CCCCCCCCCN(C)Cc1ccc(O)cc1`, the IC50 at Acetylcholinesterase [1] came to 25.8 µM; on Cholinesterase [2], 0.53 µM; against Acetylcholinesterase [4], 6.23 µM; against Cholinesterase [5] it was 0.39 µM. The Activity in data set [3] is below 0.01 equiv. Besides, the Ratio IC50 in data set [6] amounted to 16. Further, the Papp at 18 h in “in vitro” was 5.85 ×10⁻⁶ cm/s.

For `COc1ccc2c(c1)c(C=O)cn2CCCCCCCCCCCCCCN(C)Cc1cccc(O)c1`, the IC50 was found to be 31.6 µM at Acetylcholinesterase [1] and 8.76 µM at Cholinesterase [2]. For the same molecule, the Activity in [3] was below 0.01 equiv.

As to `COc1ccc2c(c1)c(C=O)cn2CCCCCN(C)Cc1cccc(O)c1`, the IC50 on Acetylcholinesterase [1] is 7.13 µM; against Cholinesterase [2], 45.4 µM. For the same molecule, in [3], the Activity turned out to be 0.2 equiv.

`COc1ccc2c(c1)c(C=O)cn2CCCN(C)Cc1ccc(O)cc1`: the IC50 against Acetylcholinesterase [1] is 67.6 µM; on Cholinesterase [2], 6.53 µM. For the same molecule, the Activity in data set [3] stood at 1.12 equiv. The Papp at 18 h in the data set “in vitro” came out at 5.69 ×10⁻⁶ cm/s.

Consider `COc1ccc2c(c1)c(C=O)cn2CCCCCCCN(C)Cc1ccc(O)cc1`, for which the IC50 against Acetylcholinesterase [1] stood at 1.43 µM; against Cholinesterase [2], 2.1 µM; against Acetylcholinesterase [4] it was 1.61 µM; on Cholinesterase [5], 0.89 µM. For the same molecule, the Activity in [3] turned out to be 1.55 equiv. The Ratio IC50 in data set [6] came to 1.81. For the same molecule, the Papp at 18 h in “in vitro” amounted to 4.19 ×10⁻⁶ cm/s.

In the case of `COc1ccc2c(c1)c(C=O)cn2CCCCCCCCCCCCN(C)Cc1ccc(O)cc1`, the IC50 on Acetylcholinesterase [1] came out at 33.8 µM; against Cholinesterase [2] it was 1.04 µM; against Acetylcholinesterase [4], 60.6 µM; on Cholinesterase [5] it was 0.26 µM. In addition, the Activity in [3] is below 0.01 equiv. Moreover, in [10], the Selectivity Index was above 100. Moreover, in “in vitro”, the Papp at 18 h is 10 ×10⁻⁶ cm/s.

As to `COc1ccc2c(c1)c(C=O)cn2CCCCCCCCCCN(C)Cc1ccc(O)cc1`, the IC50 against Acetylcholinesterase [1] was 1.47 µM; on Cholinesterase [2], 0.12 µM; against Acetylcholinesterase [4] it was 0.6 µM; on Cholinesterase [5], 0.19 µM. The Activity in [3] turned out to be 0.05 equiv. The Ratio IC50 in [6] stood at 3.16. The same molecule gave a Papp at 18 h in the data set “in vitro” of 5.46 ×10⁻⁶ cm/s.

As for `COc1ccc2c(c1)c(C=O)cn2CCCCCCCCN(C)Cc1cccc(O)c1`, the IC50 against Acetylcholinesterase [1] is 3.39 µM; against Cholinesterase [2], 5.26 µM; on Acetylcholinesterase [4], 2.6 µM; on Cholinesterase [5] it was 2.15 µM. Moreover, the Activity in data set [3] was found to be 0.22 equiv. Besides, the Ratio IC50 in [6] is 1.21. The molecule further showed a Papp at 18 h in the data set “in vitro” of 6.05 ×10⁻⁶ cm/s.

In the case of `COc1ccc2c(c1)c(C=O)cn2CCCCCCCCCCCCN(C)Cc1ccc(OC)c(OC)c1`, the IC50 at Acetylcholinesterase [1] was found to be 51.8 µM; against Cholinesterase [2] it was 0.88 µM. Moreover, the Activity in data set [3] is below 0.01 equiv. The same molecule yielded a Papp at 18 h in “in vitro” of 5.27 ×10⁻⁶ cm/s.

As for `CCN(CCCCCCCCCCCCn1cc(C=O)c2cc(OC)ccc21)Cc1cccc(O)c1`, the IC50 is 10.5 µM against Acetylcholinesterase [1], 0.19 µM on Cholinesterase [2], 42.5 µM against Acetylcholinesterase [4] and 0.88 µM at Cholinesterase [5]. Further, the Activity in [3] stood at 0.13 equiv. Also, the Ratio IC50 in data set [6] turned out to be 48.3. This molecule also returned a Papp at 18 h in “in vitro” of 8.18 ×10⁻⁶ cm/s.

In the case of `COc1ccc2c(c1)c(C=O)cn2CCCCN(C)Cc1ccc(O)cc1`, the values for the IC50 against Acetylcholinesterase [1] and on Cholinesterase [2] were 65.2 µM and 20.1 µM, respectively. Also, the Activity in data set [3] was determined as 0.91 equiv.

These data come from ChEMBL document CHEMBL5236653, “Dual functional antioxidant and butyrylcholinesterase inhibitors for the treatment of Alzheimer's disease: Design, synthesis and evaluation of novel melatonin-alkylbenzylamine hybrids” (Bioorg Med Chem, 2023).
